Data from patent US20080234183A1, “Cell Penetrating Peptides” (priority 2002, published 2008).
One block for each substance: values may come before it.

Experiments:
Bowes cells = experiment: Cell viability measurement (CellTiter-Glo); format: cell-based, human; conditions: 24 h in 10% FBS-MEM
Description: Bowes human melanoma cells were obtained from American Type Culture Collection (Manassas, Va.). Bowes cells were cultured in Minimal Essential Medium with Earie's sats complemented with Glutamax-I, non-essential amino acids, sodium pyruvate, penicillin, streptomycin (referred on figures as “MEM”) and 10% foetal bovine serum (FBS). All media components for Bowes cells were from invitrogen Corporation (Paisley, UK). Trypsin/EDTA was from PAA laboratories GmbH (Linz, Austria). Cells were subcultured once a week, seeding 200 000 cells per T75. For the viability assays, 50 000 cells (in 300 μl) were seeded per a well in a 24-well-plate a day before the experiment. K562 human erythroleukemia cells were obtained from American Type Culture Collection (Manassas, Va.). K562 cells were cultured in RPMI-1640 medium complemented with Glutamax-I, penicillin, streptomycin (referred in FIG. 32-35 as “RPMI”) and foetal bovine serum (7.5%). All media components for K562 cells were from invitrogen Corporation (Paisley, UK). […]
The stock solutions of the conjugates (1 mM) were prepared in sterile water and the stock solution of MTX in 10% DMSO in water. […] Then 300 μl was transferred to a white polystyrene FluoroNunc™ plate (Nunc A/S, Roskilde, Denmark) and luminescence was recorded at dual-scanning microplate spectrofluorometer (SPECTRAmax® GEMINI XS, Molecular Devices, Sunnyvale, Calif.).

G11 = biological target: T1, G11 (Homo sapiens, UniProt P29992); experiment: GTPase activity of Sf9 membranes overexpressing G-proteins; format: biochemical; conditions: 100 μM
T1 construct: made in house; host or cells: Sf9 insect cells (baculovirus); membranes used
T1 sequence (P29992 1-359): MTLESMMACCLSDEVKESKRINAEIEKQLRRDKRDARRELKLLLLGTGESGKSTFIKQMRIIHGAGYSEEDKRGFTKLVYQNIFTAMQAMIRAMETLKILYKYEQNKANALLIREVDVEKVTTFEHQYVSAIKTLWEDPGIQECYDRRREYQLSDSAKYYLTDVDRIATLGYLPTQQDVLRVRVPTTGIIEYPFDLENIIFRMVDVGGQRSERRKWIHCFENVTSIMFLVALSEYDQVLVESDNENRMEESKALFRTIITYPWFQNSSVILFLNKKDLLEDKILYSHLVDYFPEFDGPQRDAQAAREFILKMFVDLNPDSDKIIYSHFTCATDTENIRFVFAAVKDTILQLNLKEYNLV

Gi = biological target: T2, Gi (Bos taurus, UniProt P63097); experiment: as above; format: biochemical, bovine; conditions: 100 μM
T2 construct: made in house; host or cells: Sf9 insect cells (baculovirus); membranes used
From the text: (§1) Baculovirus transfer vectors harboring the genes for Gsα, Giα1 and β1γ2 were kindly provided by Dr. Tatsuya Haga (University of Tokyo, Tokyo, Japan). The cDNA for bovine Gsα (21) in pVL1392, bovine Giα1 (22) In pVL1392 and bovine β1γ2 (23) in pVL1393 were cotransfected with linearized baculovirus DNA (Pharmingen, San Diego, Calif., USA), and the resulted virus stocks were subjected to one round of plaque purification before generation of high-titer virus stocks. In the expression procedure, Sf9 cells at density of 2 million cells/ml in suspension culture were Infected with a ratio 2:1 of a versus βγ. Cells were harvested 48 h post-infection, washed in PBS and stored at −70° C. until membrane preparation.
(§2) Frozen pieces of blood vessels were mechanically pulverized. […] Until used, they were kept frozen in the concentration of 1-2 mg protein/ml as determined by the method of Lowry (Lowry, O. H., Rosenbrough, N.Y., Farr, A. L. & Randall, R. J. J. Biol. Chem. 193, 265-275 (1951)). […]
(§3) Incubation medium was standard TE-buffer, pH 7.5. […] Blank values were determined by the replacement of membrane solution with assay buffer. […] The radioactivity of the yielding radioactive phosphate was determined in Packard 3255 liquid scintillation counter.

Gs = biological target: T3, Gs (Bos taurus, UniProt P04896); experiment: as above; format: biochemical, bovine; conditions: 100 μM
T3 construct: made in house; host or cells: Sf9 insect cells (baculovirus); membranes used
From the text: as §1, §2, §3

[1] = tested on: G-proteins from blood vessel membranes; experiment: Rate of GTPγS binding to blood vessel membranes; format: biochemical; conditions: membranes from porcine left anterior descending coronary artery
Description: Frozen pieces of blood vessels were mechanically pulverized. Subsequently membranes were obtained according to the protocol of McKenzie (McKenzie, F. R. Signal Transduction (Milliqan, E., Ed.), Oxford University Press, Oxford, N.Y., Tokyo. (1992)) with minor modifications. Until used, they were kept frozen in the concentration of 1-2 mg protein/ml as determined by the method of Lowry (Lowry, O. H., Rosenbrough, N.Y., Farr, A. L. & Randall, R. J. J. Biol. Chem. 193, 265-275 (1951)). The same procedure (with the exception of pulverization of tissue) was used also for the preparation of membranes from Sf9 cells which overexpressed the G-proteins of different types; protein concentrations of these membrane preparations were between 0.2 and 0.4 mg/ml.
The binding to G-proteins from blood vessel membranes was followed as described by McKenzie (McKenzie, F. R. Signal Transduction (Milligan, E., Ed.), Oxford University Press, Oxford, N.Y., Tokyo. (1992)). Briefly, the membranes (final protein concentration in the assay mixture was 0.05 mg/ml) were incubated for 3 min in the absence and presence of peptides in different concentrations with 0.5 nM [^35S]GTPγS at 13° C. […] The remaining radioactivity contained in the filters was determined in the LKB 1214 Rackbeta liquid scintillation counter. Blank values were determined by replacing the membrane preparations with buffer.

great cardiac vein = experiment: Blood vessel contraction measurement; parameters: species or system porcine
Description: (§4) Dissected porcine hearts (260-390 g) were transported from local slaughterhouse to the laboratory in ice-cold Krebs-Henseleit solution (119 mM NaCl, 23.8 mM NaHCO3, 3 mM KCl, 1.14 mM NaH2PO4, 1.63 mM CaCl2, and 16.5 mM glucose). Left anterior descending coronary artery and great cardiac vein were isolated. Part of each blood vessel was used immediately after Isolation for contraction assays while part of it was kept frozen in liquid nitrogen for the membrane preparation. In some experiments blood vessels in which endothelium was mechanically removed were used. The same procedure was used also for the preparation of human umbilical blood vessels; umbilical cords were obtained from Obstetric Clinic of Ljubljana Clinical Center, Slovenia.
(§5) The measurements were performed as already described (20). Rings (5 mm wide) of blood vessels were cut and mounted into 10 ml tissue chamber filled with Krebs-Henseleit solution (37° C.; pH=7.4) which was oxygenated with the mixture of ^95% O2 and 5% CO2. Initial tension of 50 mN was applied and after equilibration 30 mM KCl was added to obtain stable Isometric contraction. The presence of endothelium was verified with substance P. After washing out of KCl and substance P and after the equilibration of the system was restored, test peptide was added into the tissue chamber and blood vessel contraction was recorded.

human umbilical artery = experiment: Blood vessel contraction measurement
Description: as §4, §5

[2] = tested on: porcine left anterior descending coronary artery; experiment: Blood vessel contraction measurement
Description: as §4, §5

Go = biological target: T4, Go (Homo sapiens, UniProt P09471); experiment: GTPase activity of Sf9 membranes overexpressing G-proteins; format: biochemical; conditions: 100 μM
T4 construct: made in house; host or cells: Sf9 insect cells (baculovirus); membranes used

LoVo cells = experiment: Internalisation of biotinylated selCPPs, fluorescence microscopy; format: cell-based, human
Description: One aspect of the present invention thus comprises a method for screening the cellular uptake of a broad variety of CPPs in vitro, wherein cells are grown on glass cover slips to suitable, such as 50%, density, whereupon the media is changed to serum free and a blotinylated peptide solution is added. The cells are then incubated, washed, fixed and the peptides are visualised by staining with, e.g. avidin-FITC, or streptavidin-TRITC, and the cell nuclei are counterstained, e.g. with Hoechst. Images are preferably obtained with a fluorescence microscope and evaluated.
FIG. 5. Example of inactivated selCPP. Internalisation of YTA-2 (A) compared to YTA-2 ps (B) In LoVo cells, both biotynilated peptides detected by TRITC-avidin at 37° C.
The cells were grown on round glass cover slips (12 mm, GTF, Sweden) in a 24-well plate to approximately 50% confluence. The media was changed to serum free and the biotinylated peptide solutions were added. The cells were incubated for 30 min at 37 or 4° C. The cells were washed twice with PBS, fixed with 4% paraformaldehyde solution 15 min at room temperature (dark) and then permeabilised in 30 mM HEPES buffer containing 0.5% w/v Triton X-100, 3 min on Ice. Sites for unspecific binding were blocked In PBS containing 3% (w/v) bovine serum albumin, overnight at 4° C. The peptides were visualised by staining with avidin-FrTC or streptavidin-TRITC (Molecular Probes, the Netherlands). The cell nuclei were stained with Hoechst 33258 (0.5 μg/ml) for 5 min, after which the cover slips were washed 3 times with PBS and mounted in 25% glycerol in PBS. The images were obtained with a Leica DM IRE2 fluorescence microscope (Leica Microsystem., Sweden) and processed in PhotoShop 6.0 software (Adobe Systems Inc., CA) (See e.g. FIG. 38-40).

MMP2 = biological target: T5, MMP2 (Homo sapiens, UniProt P08253); experiment: Specific cleavage by matrix metallo proteinase-2; format: biochemical; conditions: mass spectrometry, data not shown
T5 construct: check the specific cleavage of YTA-2 ps by active MMP-2
T5 sequence (P08253 110-660): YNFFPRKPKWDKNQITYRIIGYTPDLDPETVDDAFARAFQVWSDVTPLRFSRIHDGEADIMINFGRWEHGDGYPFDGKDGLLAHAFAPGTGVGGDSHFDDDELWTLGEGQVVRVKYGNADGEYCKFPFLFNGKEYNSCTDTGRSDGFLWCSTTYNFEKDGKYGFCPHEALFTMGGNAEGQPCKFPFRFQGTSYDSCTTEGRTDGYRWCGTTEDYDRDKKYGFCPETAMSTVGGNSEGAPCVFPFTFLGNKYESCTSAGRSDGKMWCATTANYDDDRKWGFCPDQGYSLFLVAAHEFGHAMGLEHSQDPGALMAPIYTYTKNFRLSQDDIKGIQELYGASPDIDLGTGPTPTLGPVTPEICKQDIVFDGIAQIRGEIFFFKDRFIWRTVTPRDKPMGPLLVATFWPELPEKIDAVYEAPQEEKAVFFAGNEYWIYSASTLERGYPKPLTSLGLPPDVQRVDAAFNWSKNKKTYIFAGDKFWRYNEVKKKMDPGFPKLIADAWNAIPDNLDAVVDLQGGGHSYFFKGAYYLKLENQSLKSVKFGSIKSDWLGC
Description: (data not shown). […] The next step in the development of this technique is to check the specific cleavage of YTA-2 ps by active MMP-2. It is performed by a fluorescence/quencher assay, wherein the MMP-2 substrate YTA-2 ps upon cleavage increases in fluorescence intensity. The correct cleavage is further checked by mass spectrometry.

cells = experiment: Protein internalisation by YTA-2 of Fluo-Streptavidin; format: cell-based; conditions: 67 kDa fluorescein labelled streptavidin linked to biotinylated peptide
Description: FIG. 39. Protein internalisation by YTA-2 of Fluo-Streptavidin 37° C. and T/E, showing the delivery property of a selCPP.
FIG. 40. Protein internalisation by YTA-2 of Fluo-Streptavidin 4° C. and T/E, showing the delivery property and temperature independency of a selCPP.

Bowes and Caco-2 = experiment: PenMMP14 uptake in cells expressing MMP14; format: cell-based, human
From the text: FIG. 24. Another example of an Inactivated selCPP. PenMMP14 uptake in Bowes (A) and B)) and Caco-2 (C) and D)). The left column is uptake of fluorescein labelled peptide (A) and C)) and the […] with coumarine label (B) and D)).

T4 sequence (P09471 whole entry): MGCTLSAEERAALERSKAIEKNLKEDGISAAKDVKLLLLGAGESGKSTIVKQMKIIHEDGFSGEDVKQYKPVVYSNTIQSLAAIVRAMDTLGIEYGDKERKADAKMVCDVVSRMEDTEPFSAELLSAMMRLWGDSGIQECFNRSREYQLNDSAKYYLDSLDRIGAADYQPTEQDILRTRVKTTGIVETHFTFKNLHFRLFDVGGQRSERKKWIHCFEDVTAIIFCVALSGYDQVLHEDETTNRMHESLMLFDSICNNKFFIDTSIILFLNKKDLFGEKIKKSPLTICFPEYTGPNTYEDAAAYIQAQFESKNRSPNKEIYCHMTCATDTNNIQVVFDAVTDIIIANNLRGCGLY
T3 sequence (P04896 whole entry): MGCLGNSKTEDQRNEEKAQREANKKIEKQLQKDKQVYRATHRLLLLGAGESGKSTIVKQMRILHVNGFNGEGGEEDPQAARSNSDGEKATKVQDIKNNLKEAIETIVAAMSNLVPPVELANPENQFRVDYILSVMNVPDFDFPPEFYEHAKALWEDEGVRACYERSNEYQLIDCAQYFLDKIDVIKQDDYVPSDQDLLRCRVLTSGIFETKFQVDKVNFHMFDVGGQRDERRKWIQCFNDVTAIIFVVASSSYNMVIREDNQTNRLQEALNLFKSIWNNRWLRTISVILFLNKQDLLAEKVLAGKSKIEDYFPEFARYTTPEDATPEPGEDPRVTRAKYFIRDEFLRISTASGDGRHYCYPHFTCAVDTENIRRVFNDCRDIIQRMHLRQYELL
T2 sequence (P63097 2-354 limits assumed): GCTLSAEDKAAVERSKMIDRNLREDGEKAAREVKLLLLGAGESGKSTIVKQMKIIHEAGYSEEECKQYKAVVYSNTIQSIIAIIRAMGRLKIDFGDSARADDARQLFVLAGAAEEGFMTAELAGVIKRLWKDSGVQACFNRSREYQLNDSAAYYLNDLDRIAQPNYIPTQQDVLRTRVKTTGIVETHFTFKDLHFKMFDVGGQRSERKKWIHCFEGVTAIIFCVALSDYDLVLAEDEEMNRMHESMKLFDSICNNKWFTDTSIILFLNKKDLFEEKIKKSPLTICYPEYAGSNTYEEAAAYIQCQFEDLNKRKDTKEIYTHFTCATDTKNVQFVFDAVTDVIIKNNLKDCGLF

Substance: Apa-γGlu-Gly-pVEC
toxic effect on cell viability (Bowes cells): more toxic than Apa-Glu-Gly-pVEC

GTPase activity (G11): moderate inhibition
GTPase activity (Gi): small but significant activation
GTPase activity (Gs): seems not to be affected
rate of binding of GTPγS [1]: dose-dependently increased
GTPase activity (Go): small but significant activation
Substance: FLGKKFKKYFLQLLK [Peptide M511]
blood vessel contraction compared with porcine artery (great cardiac vein): Virtually Identical effect
blood vessel contraction compared with porcine artery (human umbilical artery): Virtually Identical effect
termination of contraction by washing [2]: could not be terminated by washing
blood vessel contraction ([2]; 16 μM): intense and long-lasting contraction
strength of contraction as % of maximal effect of potassium ion ([2]; 16 μM, comparable to 30 mM K+): approximately 50%
contraction force higher than that induced by 30 mM KCl ([2]; 100 mM M511 (so in the source)): about 40%

cleavage by MMP2 (MMP2): confirmed by mass spectrometry
Substance: YTAIAWVKAFIRKLRK [YTA-2]
Comment (staining/localisation) (LoVo cells): stain also nuclear
Entry into cells (LoVo cells; 37° and 4° C.): can efficiently enter cells
cargo transport (cells): can transport large cargo molecules into cells

Substance: coum-DEEQERSEN-IRQIKIWFQNRRMKWK*K-amide [SelCPP2]
cellular uptake (Bowes and Caco-2): taken up in cells expressing MMP14
